Experimental data: patent US20090155266A1, “Methods and Compositions Relating to Vascular Endothelial Growth Factor and TH2 Mediated Inflammatory Diseases” (YALE UNIVERSITY, priority 2004, published 2009)

Tests used:
[1] = system: OVA sensitized and challenged wild type mice; test: OVA sensitization and challenge model of Th2 inflammation; assay type: in vivo; conditions: for antigen-stimulated IL-4 production / antigen-stimulated IL-13 production: BAL from OVA sensitized and challenged mice, antagonist IP; for onset of a Th2 mediated inflammatory disease: disease induced by allergen (ovalbumin sensitization) or genetic predisposition, summary statement; for airways hyperresponsiveness (AHR), methacholine responsiveness / BAL and tissue inflammation: wild type mice sensitized and challenged with OVA, SU1498 10 mg/kg/day or VEGF TrapR1R2 25 mg/kg, IP; for BAL and tissue inflammation: starting the day before first OVA dose
Description: The OVA model was undertaken in wild type mice as previously described (Wang et al., 2000). Sensitization and challenge were undertaken in the presence and absence of the VEGF receptor antagonist SU1498 (10 mg/kg/day) or VEGF TrapR1R2 (Regeneron, Inc., Tarrytown, N.Y.) (25 mg/kg) which were given via an intraperitoneal (IP) route starting the day before the first dose of OVA. The VEGF TrapR1R2 is a fusion protein comprised of the extracellular domains of VEGFR1 and VEGFR2 coupled to the Fc-portion of IgG that binds VEGF-A, but not VEGF-B or VEGF-C (Cursiefen et al., 2004). T-bet null mutant mice (Finotto et al., 2002) were obtained from the Jackson Laboratories (Bar Harbor, Me.). At 6 weeks of age they were randomized to SU1498 or control vehicle as described above. Two weeks later phenotypic characterization was undertaken as described above.

VEGF-A = molecular target: T1, VEGF-A (Homo sapiens, UniProt P15692); conditions: cited from earlier work
T1 sequence (P15692 207-320 limits assumed): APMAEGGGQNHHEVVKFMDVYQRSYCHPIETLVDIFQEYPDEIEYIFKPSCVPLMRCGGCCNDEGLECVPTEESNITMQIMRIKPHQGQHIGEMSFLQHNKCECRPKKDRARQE

VEGF-B = molecular target: T2, VEGF-B (Homo sapiens, UniProt P49765); conditions: cited from earlier work
T2 sequence (P49765 22-136 limits assumed): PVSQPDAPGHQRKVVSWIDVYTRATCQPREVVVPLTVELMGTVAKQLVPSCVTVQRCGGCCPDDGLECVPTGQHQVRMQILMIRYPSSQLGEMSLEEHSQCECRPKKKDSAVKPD

VEGF-C = molecular target: T3, VEGF-C (Homo sapiens, UniProt P49767); conditions: cited from earlier work
T3 sequence (P49767 112-227 limits assumed): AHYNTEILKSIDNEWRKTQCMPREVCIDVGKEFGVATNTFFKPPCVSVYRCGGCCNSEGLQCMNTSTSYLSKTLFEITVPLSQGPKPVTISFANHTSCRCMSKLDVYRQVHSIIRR

Molecule	antigen-stimulated IL-4 production [1]	antigen-stimulated IL-13 production [1]	onset of a Th2 mediated inflammatory disease [1]	airways hyperresponsiveness (AHR), methacholine responsiveness [1]	BAL and tissue inflammation [1]	binding to VEGF-A (VEGF-A)	binding to VEGF-B (VEGF-B)	binding to VEGF-C (VEGF-C)
CC(C)c1cc(/C=C(\C#N)C(=O)NCCCc2ccccc2)cc(C(C)C)c1O [SU1498, reference compound]	markedly decreased	markedly decreased	prevented onset	markedly decreased	markedly decreased	–	–	–
VEGF TrapR1R2: fusion protein comprised of the extracellular domains of VEGFR1 and VEGFR2 coupled to the Fc-portion of IgG (Regeneron)	markedly decreased	markedly decreased	prevented onset	abrogates	abrogates	binds	not	not
